{"source": "patent US8216825B2", "about": "“Aquaculture biocide methods and compositions” (priority 2010, dated 2012)", "key": {"[1]": {"tested_on": "Chlorella sp.", "test": "Biocide toxicity tests in test tubes, algal optical density at 680 nm (Example 5)", "format": "cell-based", "settings": "for mean optical density on day 12 compared with control group: 20 mg/L methoprene, 2% acetone respectively, P>0.05; for mean optical density on day 12 compared with control group / inhibition of algal growth: 2.0 mg/L resmethrin; for inhibition of algal growth: applied without rotifers, experimental concentrations 20 mg/L methoprene, 2% acetone; for mean optical density at day 12 compared with control: printed P>0.5", "method": "27 ml of Chlorella in Alga-Gro Freshwater Medium were added to 300 ml modified Bristol medium and allowed to grow without agitation for 30 hours. The 327 ml of algal solution were then expanded into a total of 700 ml modified Bristol medium and allowed to grow without agitation. After 42 hours, the 700 ml of algal solution were split up into 60 individual test tubes. Each test tube received 10 ml of algal solution, along with 1 ml of rotifer solution (or media) and 4 ml of reagent solution, for a total of 15 ml.\nAn initial Brachionus sp. population of about 30 individuals was cultured without agitation in one 60-ml jar for 3 days. Then, 1 ml of rotifer solution was pipetted into each of the 40 test tubes designated for rotifer toxicity assessment.\nThe 60 test tubes represented 12 groups, each with five replicates. The test group names and conditions are as follows (Table 4). The group “20M−R” contained algae, 20 mg/l of methoprene, and no rotifers. The group “20M+R” contained algae, 20 mg/l of methoprene, and rotifers. The group “5M+R” contained algae, 5 mg/l of methoprene, and rotifers. The group “5M+A+R” contained 5 mg/l of methoprene, 2% acetone (v/v), and rotifers. The group “2R−R” contained algae, 2.0 mg/I of resmethrin, and no rotifers. The group “2R+R” contained algae, 2.0 mg/l of resmethrin, and rotifers. The group “5R+R” contained algae, 0.5 mg/l of resmethrin, and rotifers. The group “5R+A+R” contained 0.5 mg/l of resmethrin, 2% acetone, rotifers. The group “A−R” contained algae, 2% acetone and no rotifers. The group “A+R” contained algae, 2% acetone and rotifers. The group “R” contained algae and rotifers without any extra reagents. The group “C” contained algae in media only.\nOrganisms were cultured and assessed for a test period of 12 days. During the test period, organisms were subjected to agitation at 60 rpm and a photoperiod of 12 hr light, 12 hr dark. The day that organisms were combined into the 60 test tubes was designated as day 0. A 1000-μl sample was removed from each tube for optical density analysis every other day, beginning on day 0. The optical densities of these samples were determined spectrometrically at 680 nm. On days 0, 6, and 12, a 250-μl sample was removed from each of the 1000-μl samples from rotifer-containing groups. Rotifers per 250-μl sample were counted with a dissecting microscope.\nThe optical densities of each of the 12 groups in the pesticide toxicity tests were averaged and plotted on a time plot (FIGS. 3 & 4). Standard deviation values and average algal growth rates were calculated for each group and day. T-tests were performed to determine the statistical significance of difference between relevant means. A linear regression model was used to compare the optical density averages of the “20M−R” group and the “C” control group. A linear regression of time against optical density in the control group of tubes was compared with a logarithmic regression model of time against optical density in the control flask. (FIG. 5)."}, "[2]": {"tested_on": "rotifers", "settings": "at concentrations found in this study to be nontoxic to algae; literature findings; cited from earlier work"}, "[3]": {"tested_on": "Daphnia magna", "test": "Alpha-pinene/propylene glycol in algal medium, Daphnia control (Example 4)", "format": "in vivo", "settings": "approx. 1:1 (w/w) alpha-pinene and propylene glycol, equal to or less than 136 mg/L; present-tense example", "method": "(§1) An approximate 1:1 (w/w) solution of alpha-pinene and propylene glycol is made. Alpha-pinene is the active agent, while propylene glycol is a surfactant. This mixture is added to the algal medium at a concentration equal to or less than 136 mg/L. Daphnia magna and rotofers are controlled in the aquaculture."}, "[4]": {"tested_on": "rotofers", "test": "Alpha-pinene/propylene glycol in algal medium, rotifer control (Example 4)", "format": "in vivo", "settings": "approx. 1:1 (w/w) alpha-pinene and propylene glycol, equal to or less than 136 mg/L; present-tense example", "method": "as §1"}, "[5]": {"tested_on": "Chlorella sp.", "test": "12-day mason jar test, algal optical density at 680 nm, algae without rotifers (Example 1)", "format": "cell-based", "settings": "A+M: 30 mg/L methoprene, no rotifers", "method": "(§2) Algae were expanded into 500 ml of 20% artificial seawater in mason jars and subjected to five treatment conditions. Five replicates were conducted for each of the conditions. The test conditions were: control (algae only), rotifers without methoprene (A+R), methoprene without rotifers (A+M) methoprene with rotifers (A+R+M), and double concentration methoprene with rotifers (A+R+2M). In the mason jars containing solutions “with rotifers”, 9 mL of media were replaced with rotifer solution. In the A+M and A+R+M groups, the solution was modified to give a methoprene concentration of 30 mg/L. In the A+R+2M group, the solution was modified to give a methoprene concentration of 62 mg/L.\n(§3) During the test period, algae was kept on a 12-hour light: 12-hour dark photoperiod at 26.8° C. The pH and specific gravity of the 20% artificial seawater solution were measured to be 8.92±0.02 and 1.013 respectively.\n(§4) Optical density measurements were taken on days 5, 6, and 12 after inoculation. Each jar was first agitated either by gently rocking back and forth until minimal algal residue could be seen on the bottom. Occasionally, a sterile tube or pipette was employed to scrape some residue into the solution. Once minimal algal residue remained in the jar, a 5-mL sample of solution was pipetted out with a sterile pipette. The sample's optical density was read with a spectrometer at 680 nm. Control and A+R sample readings were blanked with a solution of 10 mL modified Bristol medium per 40 mL 20% artificial seawater. A+M and A+R+M sample readings were blanked with a solution of 10 mL modified Bristol medium per 38.5 mL 20% artificial seawater and 1.5 mL methoprene-seawater solution. A+R+2M sample readings were blanked with a solution of 10 mL modified Bristol medium per 36.9 mL 20% artificial seawater and 3.1 mL methoprene-seawater solution. Optical density readings were taken in absorbance units."}, "[6]": {"tested_on": "Brachionus sp. rotifers", "test": "12-day mason jar test, algal optical density at 680 nm, algae with rotifers (Example 1)", "format": "in vivo", "method": "as §2, §3, §4"}, "[7]": {"tested_on": "Brachionus sp. rotifers", "test": "Live rotifer count by microscopy in 30-μL samples (Example 1)", "format": "in vivo", "settings": "13 days after inoculation", "method": "One day prior to the general test period, the rotifer concentration was determined. The rotifer concentration of the bottle was estimated by counting rotifers in three trials of 30-μL samples with a Swift microscope at 1.25× magnification. Rotifer concentration was estimated again with the same procedure on the day of inoculation.\n12 days after inoculation a 5-mL sample was extracted from each of the 15 jars containing rotifer solution. 24 hours after extraction, these samples were examined with microscopy. From each of the fifteen 5-mL samples, three 30-μL samples were pipetted onto glass slides and the rotifers were counted with a stereoscopic microscope at 2×-4× magnification."}, "[8]": {"tested_on": "Chlorella sp.", "test": "Methoprene with acetone added to Chlorella, growth (Example 2)", "format": "cell-based", "settings": "methoprene 20 mg/L with acetone 2% v/v", "method": "Methoprene at 20 mg/L with acetone at 2% v/v was added to Chlorella sp."}, "[9]": {"tested_on": "rotifers", "test": "Rotifer-infested photobioreactor, methoprene with acetone (Example 3)", "format": "in vivo", "settings": "methoprene 30 mg/L or less with acetone between 1 and 27 ml/L; present-tense example", "method": "Methoprene at a concentration of 30 mg/L or less is added to the algal solution in a rotifer-infested photobioreactor. Acetone at a concentration between 1 and 27 ml/L is also added as an adjuvant. At these concentrations, acetone may (while subjecting the algal crop to minimal harm) act as a surfactant, allowing methoprene to become more dissolved. […] Wait approximately 30 days before renewing the media so that methoprene can biodegrade sufficiently before disposal of water."}, "[10]": {"tested_on": "Brachionus plicatilis", "settings": "Marcial et al. (2005), lower concentration of the project is 30 mg/L; cited from earlier work"}, "[11]": {"settings": "background statement; cited from earlier work"}, "[12]": {"tested_on": "humans or algae", "settings": "background statement; cited from earlier work"}}, "note": "“Also recorded” adds a separate entry of the source."}
{"smiles": "CC(C)=CC1C(C(=O)OCc2coc(Cc3ccccc3)c2)C1(C)C", "note": "(stereo not drawn) [resmethrin]", "values": [{"measurement": "mean optical density on day 12 compared with control group", "setting": "[1]", "value": "not significantly different"}, {"measurement": "inhibition of algal growth", "setting": "[1]", "value": "Neither methoprene, resmethrin, nor acetone, when applied without rotifers, was found to inhibit algal growth; also recorded: not found to inhibit algal growth"}, {"measurement": "mean optical density at day 12 compared with control", "setting": "[1]; group 2R−R as printed: 2.0 mg/L resmethrin, no rotifers", "value": "significantly lower"}, {"measurement": "harm to rotifers", "setting": "[2]", "value": "significantly harmful to rotifers"}]}
{"smiles": "CC(C)=O", "note": "[acetone]", "values": [{"measurement": "mean optical density on day 12 compared with control group", "setting": "[1]", "value": "not significantly different"}, {"measurement": "inhibition of algal growth", "setting": "[1]", "value": "Neither methoprene, resmethrin, nor acetone, when applied without rotifers, was found to inhibit algal growth; also recorded: not found to inhibit algal growth"}]}
{"smiles": "CC1=CCC2CC1C2(C)C", "note": "(stereo not drawn) [alpha-pinene]", "values": [{"measurement": "control of Daphnia magna in the aquaculture", "setting": "[3]", "value": "controlled"}, {"measurement": "control of rotifers in the aquaculture", "setting": "[4]", "value": "controlled"}]}
{"smiles": "COC(C)(C)CCC[C@H](C)C/C=C/C(C)=C/C(=O)OC(C)C", "note": "(racemic) [methoprene]", "values": [{"measurement": "Mean optical density ± one standard deviation", "setting": "[5]; 5 days after inoculation", "value": "0.84 ± 0.02"}, {"measurement": "Mean optical density ± one standard deviation", "setting": "[5]; 6 days", "value": "0.89 ± 0.01"}, {"measurement": "Mean optical density ± one standard deviation", "setting": "[5]; 12 days", "value": "0.93 ± 0.02"}, {"measurement": "average specific growth rate of algae", "setting": "[5]; between 5 and 12 days after inoculation", "value": "0.0065 log(AU)/day"}, {"measurement": "Mean optical density ± one standard deviation", "setting": "[6]; A+R+2M: 62 mg/L methoprene with rotifers, 5 days", "value": "0.6 ± 0.2"}, {"measurement": "Mean optical density ± one standard deviation", "setting": "[6]; A+R+2M: 62 mg/L methoprene with rotifers, 6 days", "value": "0.7 ± 0.1"}, {"measurement": "Mean optical density ± one standard deviation", "setting": "[6]; A+R+2M: 62 mg/L methoprene with rotifers, 12 days", "value": "0.7 ± 0.2"}, {"measurement": "Mean optical density ± one standard deviation", "setting": "[6]; A+R+M: 30 mg/L methoprene with rotifers, 5 days", "value": "0.6 ± 0.2"}, {"measurement": "Mean optical density ± one standard deviation", "setting": "[6]; A+R+M: 30 mg/L methoprene with rotifers, 6 days", "value": "0.7 ± 0.2"}, {"measurement": "Mean optical density ± one standard deviation", "setting": "[6]; A+R+M: 30 mg/L methoprene with rotifers, 12 days", "value": "0.7 ± 0.2"}, {"measurement": "average specific growth rate of algae", "setting": "[6]; A+R+M: 30 mg/L methoprene with rotifers, between 5 and 12 days after inoculation", "value": "0.0078 log(AU)/day"}, {"measurement": "average optical density", "setting": "[6]; double methoprene concentration with rotifers (A+R+2M, 62 mg/L), 12 days", "value": 0.71, "unit": "AU"}, {"measurement": "average optical density", "setting": "[6]; methoprene with rotifers (A+R+M, 30 mg/L), 12 days, rotifers only 0.47 AU, control 0.96 AU", "value": 0.69, "unit": "AU"}, {"measurement": "live rotifers in 30-μL samples", "setting": "[7]; A+R+2M: 62 mg/L methoprene", "value": "zero"}, {"measurement": "live rotifers in 30-μL samples", "setting": "[7]; A+R+M: 30 mg/L methoprene, A+R group 8.7 per 30 μL", "value": "zero"}, {"measurement": "growth reduction of Chlorella sp.", "setting": "[8]", "value": "No growth reduction"}, {"measurement": "effect on rotifers", "setting": "[9]", "value": "eliminates rotifers"}, {"measurement": "mean optical density on day 12 compared with control group", "setting": "[1]", "value": "not significantly different"}, {"measurement": "inhibition of algal growth", "setting": "[1]", "value": "Neither methoprene, resmethrin, nor acetone, when applied without rotifers, was found to inhibit algal growth"}, {"measurement": "inhibition of algal growth", "setting": "[1]; listed as Methoprene", "value": "not found to inhibit algal growth"}, {"measurement": "mean optical density at day 12 compared with control", "setting": "[1]; group 5M+R: 5 mg/L methoprene, rotifers", "value": "significantly lower"}, {"measurement": "harm to rotifers", "setting": "[2]", "value": "significantly harmful to rotifers"}, {"measurement": "24-hr LC50", "setting": "[10]", "value": "lower methoprene concentration utilized in this project"}, {"measurement": "degradation in sunlight", "setting": "[11]", "value": "rapidly degrades in sunlight"}, {"measurement": "toxicity to humans or algae", "setting": "[12]", "value": "practically non-toxic"}]}
